Source: PubChem BioAssay (NCI)
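Five concentrations, 48 hours, 96-well plates. TGI denotes the concentration required for complete inhibition of growth.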

Assays:
Assay in all cases: NCI tumour cell line growth inhibition, 48 h
[1] = test system: BT-549 breast
[2] = test system: HCC-2998 colon
[3] = test system: HL-60(TB) leukemia
[4] = test system: HOP-62 NSCLC
[5] = test system: HT29 colon
[6] = test system: K-562 leukemia
[7] = test system: KM12 colon
[8] = test system: MCF7 breast
[9] = test system: MDA-MB-435
[10] = test system: MDA-N
[11] = test system: MOLT-4 leukemia
[12] = test system: NCI-H23 lung
[13] = test system: OVCAR-5 ovarian
[14] = test system: SK-MEL-5 melanoma
[15] = test system: SN12C renal
[16] = test system: SNB-75 CNS
[17] = test system: UO-31 renal

Row | Compound | TGI [1] [µM] | TGI [2] [µM] | TGI [3] [µM] | TGI [4] [µM] | TGI [5] [µM] | TGI [6] [µM] | TGI [7] [µM] | TGI [8] [µM] | TGI [9] [µM] | TGI [10] [µM] | TGI [11] [µM] | TGI [12] [µM] | TGI [13] [µM] | TGI [14] [µM] | TGI [15] [µM] | TGI [16] [µM] | TGI [17] [µM]
1 | Cc1cccc2c1[C@]13OC(C)[C@]4(C)CC5OC(=O)[C@@]1(C)[C@@H]5[C@]34C(=O)O2 (some centres not stated) | > 100 | > 100 | > 100 | > 100 | > 100 | > 100 | > 100 | > 100 | > 100 | > 100 | > 100 | > 100 | > 100 | > 100 | > 100 | > 100 | > 100
2 | C=CCNC1=C2C[C@@H](C)C[C@@H](OC)[C@@H](OC(=O)CCCN)[C@H](C)/C=C(\C)[C@@H](OC(N)=O)[C@H](OC)/C=C\C=C(/C)C(=O)NC(=CC1=O)C2=O | 25.7 | 32.9 | 19.7 | 18.9 | 21.4 | > 100 | 19.2 | 19.4 | 45.2 | 28.4 | 40.2 | 29.6 | 31.8 | 33.7 | 44.2 | 22.2 | 34.2
3 | O=C(C(=O)N1CCc2ccccc21)c1c[nH]c2ccccc12 | > 10 | > 10 | > 10 | > 10 | > 10 | > 10 | > 10 | > 10 | > 10 | > 10 | > 10 | > 10 | > 10 | > 10 | > 10 | > 10 | > 10
4 | C[C@]12CCC(=O)C=C1CC[C@@H]1C2CC[C@]2(C)c3nn(-c4ccc(F)cc4)nc3CC12 (some centres not stated) | > 100 | > 100 | > 100 | > 100 | > 100 | > 100 | > 100 | > 100 | > 100 | > 100 | > 100 | > 100 | > 100 | > 100 | > 100 | > 100 | > 100
5 | COc1cccc(OC)c1/C=C1\OC(=O)c2cccc(OC)c21 | > 90.6 | > 100 | > 19.7 | 56 | > 100 | > 100 | > 100 | > 100 | 2.12 | 3.32 | > 100 | > 100 | > 100 | > 100 | > 100 | 17.9 | > 100
6 | COc1ccc2c(c1)CN1C(=N2)CSC1c1cc([N+](=O)[O-])ccc1Cl (configuration not stated) | > 100 | 58.7 | 45.8 | > 100 | 75.8 | > 100 | > 100 | > 100 | > 100 | > 100 | > 100 | > 100 | > 100 | > 100 | > 100 | > 100 | > 100
7 | Cc1ccc(S(=O)(=O)C2=Cc3ccc(C(F)(F)F)cc3C2(O)c2cccc(C(F)(F)F)c2)cc1 (configuration not stated) | 5.22 | 4.63 | 3.66 | 18.8 | 5.14 | 6.34 | 4.53 | 4.86 | 4.28 | 5.88 | > 22.6 | 6.26 | 5.07 | 3.35 | 4.47 | 13.9 | 6.11
8 | Cc1cccc(/C=N/NC(=S)NCCc2ccccn2)n1 | > 100 | > 100 | 41.7 | > 75.1 | > 100 | > 100 | > 100 | > 100 | > 73.7 | > 100 | > 100 | > 100 | > 100 | > 100 | > 100 | 75 | 64.2
9 | COc1cccc(CCn2c(N)c(-c3ccccc3)c3ccc([N+](=O)[O-])cc3c2=O)c1 | 4.3 | 24.8 | 27.3 | 24.4 | 27.4 | 21 | 16 | 12.7 | > 67.1 | 43.7 | 49.5 | 8.47 | 46.9 | 19.3 | 1.53 | 11.1 | 27.2
10 | COC(CN(C(=O)c1ccccc1)C1CCC2(SCCS2)c2[nH]c3ccccc3c21)OC (configuration not stated) | > 100 | > 100 | > 100 | > 100 | > 100 | > 100 | > 100 | > 100 | 70.2 | 49 | > 100 | > 100 | > 100 | > 100 | > 100 | > 100 | > 100
11 | CCC1OC2C(CC=C(C)C)=C3OC(C)(O)C(C)(CC)C(OC(=O)c4ccccc4)C3=C3OC(=O)C=C1C32 (configuration not stated) | 47.7 | 48.4 | > 100 | > 100 | > 100 | > 100 | > 100 | > 100 | > 100 | 44.4 | > 100 | > 100 | > 100 | 43.7 | 79 | > 100 | > 100
